Laboratory results from article PMC5540273, “Progress towards a public chemogenomic set for protein kinases and a call for contributions” (PLoS ONE, 2017).

Assays:
Assay in all cases: KINOMEscan competition binding
FLT3 = molecular target: T1, FLT3 (Homo sapiens, UniProt P36888); settings: read-out: %Inh FLT3
T1 sequence (P36888 27-993): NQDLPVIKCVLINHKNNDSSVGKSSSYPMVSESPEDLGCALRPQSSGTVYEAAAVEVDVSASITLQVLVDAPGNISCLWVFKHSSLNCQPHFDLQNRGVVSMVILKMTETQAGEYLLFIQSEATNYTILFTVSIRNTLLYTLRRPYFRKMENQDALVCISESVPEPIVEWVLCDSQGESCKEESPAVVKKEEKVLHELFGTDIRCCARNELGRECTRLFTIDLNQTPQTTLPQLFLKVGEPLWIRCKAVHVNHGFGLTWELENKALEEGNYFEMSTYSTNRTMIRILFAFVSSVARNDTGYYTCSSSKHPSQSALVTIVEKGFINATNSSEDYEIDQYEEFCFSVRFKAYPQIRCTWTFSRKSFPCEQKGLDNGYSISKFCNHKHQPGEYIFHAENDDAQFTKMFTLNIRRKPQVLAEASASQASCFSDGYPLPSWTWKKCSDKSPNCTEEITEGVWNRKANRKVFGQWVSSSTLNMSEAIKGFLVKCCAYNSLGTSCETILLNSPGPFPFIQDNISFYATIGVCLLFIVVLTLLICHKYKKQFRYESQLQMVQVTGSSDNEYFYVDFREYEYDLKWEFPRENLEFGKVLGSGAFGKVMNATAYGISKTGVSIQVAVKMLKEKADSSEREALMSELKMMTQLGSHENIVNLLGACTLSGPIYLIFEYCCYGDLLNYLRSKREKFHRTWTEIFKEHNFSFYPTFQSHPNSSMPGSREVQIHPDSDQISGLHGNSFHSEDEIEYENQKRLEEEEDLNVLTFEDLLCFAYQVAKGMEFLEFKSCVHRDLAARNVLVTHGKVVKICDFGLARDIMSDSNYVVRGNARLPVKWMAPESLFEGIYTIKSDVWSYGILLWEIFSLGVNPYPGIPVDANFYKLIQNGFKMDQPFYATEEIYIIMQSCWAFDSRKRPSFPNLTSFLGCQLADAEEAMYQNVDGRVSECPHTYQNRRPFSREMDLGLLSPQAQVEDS

CDKL2 = molecular target: T2, CDKL2 (Homo sapiens, UniProt Q92772); settings: read-out: %Inh CDKL2
T2 sequence (Q92772 1-493): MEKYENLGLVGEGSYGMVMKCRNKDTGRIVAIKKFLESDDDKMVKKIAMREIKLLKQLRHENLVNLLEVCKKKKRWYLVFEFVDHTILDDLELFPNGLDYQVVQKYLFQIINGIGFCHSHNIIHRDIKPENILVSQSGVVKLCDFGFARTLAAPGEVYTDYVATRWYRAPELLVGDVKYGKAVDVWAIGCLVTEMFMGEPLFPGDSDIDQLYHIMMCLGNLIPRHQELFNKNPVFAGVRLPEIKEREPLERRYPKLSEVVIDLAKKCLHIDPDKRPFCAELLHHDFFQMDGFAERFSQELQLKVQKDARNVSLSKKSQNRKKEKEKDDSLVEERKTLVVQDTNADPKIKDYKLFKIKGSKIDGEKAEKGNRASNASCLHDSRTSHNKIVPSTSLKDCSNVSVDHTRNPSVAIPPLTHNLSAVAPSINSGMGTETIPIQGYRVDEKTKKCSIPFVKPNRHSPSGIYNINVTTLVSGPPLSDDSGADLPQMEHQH

FLT4 = FLT4 (Homo sapiens, UniProt P35916); settings: read-out: %Inh FLT4
EGFR = EGFR (Homo sapiens, UniProt P00533); settings: read-out: %Inh EGFR
CDK5 = CDK5 (Homo sapiens, UniProt Q00535); settings: read-out: %Inh CDK5
ALK = ALK (Homo sapiens, UniProt Q9UM73); settings: read-out: %Inh ALK
DCAMKL1 = molecular target: T3, DCAMKL1 (Homo sapiens, UniProt O15075); settings: read-out: %Inh DCAMKL1
T3 sequence (O15075 1-740): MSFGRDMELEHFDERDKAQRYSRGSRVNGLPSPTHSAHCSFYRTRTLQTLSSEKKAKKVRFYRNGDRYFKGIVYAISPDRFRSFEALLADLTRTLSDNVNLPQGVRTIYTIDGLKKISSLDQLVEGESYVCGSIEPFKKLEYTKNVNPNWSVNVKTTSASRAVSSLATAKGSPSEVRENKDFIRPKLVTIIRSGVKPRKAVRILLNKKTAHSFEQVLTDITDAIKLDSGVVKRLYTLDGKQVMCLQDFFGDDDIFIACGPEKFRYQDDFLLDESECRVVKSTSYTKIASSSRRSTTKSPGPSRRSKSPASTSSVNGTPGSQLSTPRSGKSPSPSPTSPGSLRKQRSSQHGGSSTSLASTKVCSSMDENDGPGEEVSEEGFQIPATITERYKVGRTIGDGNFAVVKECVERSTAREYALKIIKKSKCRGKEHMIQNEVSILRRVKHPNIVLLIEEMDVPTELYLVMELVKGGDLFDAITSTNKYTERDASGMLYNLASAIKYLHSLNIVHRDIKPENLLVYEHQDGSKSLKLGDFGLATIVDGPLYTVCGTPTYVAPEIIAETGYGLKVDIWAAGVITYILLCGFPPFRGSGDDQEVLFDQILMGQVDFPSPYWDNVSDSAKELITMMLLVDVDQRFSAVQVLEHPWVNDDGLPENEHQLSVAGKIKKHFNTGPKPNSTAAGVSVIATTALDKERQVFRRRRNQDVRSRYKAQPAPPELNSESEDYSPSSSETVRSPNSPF

Sequence of ALK (Q9UM73 19-1620): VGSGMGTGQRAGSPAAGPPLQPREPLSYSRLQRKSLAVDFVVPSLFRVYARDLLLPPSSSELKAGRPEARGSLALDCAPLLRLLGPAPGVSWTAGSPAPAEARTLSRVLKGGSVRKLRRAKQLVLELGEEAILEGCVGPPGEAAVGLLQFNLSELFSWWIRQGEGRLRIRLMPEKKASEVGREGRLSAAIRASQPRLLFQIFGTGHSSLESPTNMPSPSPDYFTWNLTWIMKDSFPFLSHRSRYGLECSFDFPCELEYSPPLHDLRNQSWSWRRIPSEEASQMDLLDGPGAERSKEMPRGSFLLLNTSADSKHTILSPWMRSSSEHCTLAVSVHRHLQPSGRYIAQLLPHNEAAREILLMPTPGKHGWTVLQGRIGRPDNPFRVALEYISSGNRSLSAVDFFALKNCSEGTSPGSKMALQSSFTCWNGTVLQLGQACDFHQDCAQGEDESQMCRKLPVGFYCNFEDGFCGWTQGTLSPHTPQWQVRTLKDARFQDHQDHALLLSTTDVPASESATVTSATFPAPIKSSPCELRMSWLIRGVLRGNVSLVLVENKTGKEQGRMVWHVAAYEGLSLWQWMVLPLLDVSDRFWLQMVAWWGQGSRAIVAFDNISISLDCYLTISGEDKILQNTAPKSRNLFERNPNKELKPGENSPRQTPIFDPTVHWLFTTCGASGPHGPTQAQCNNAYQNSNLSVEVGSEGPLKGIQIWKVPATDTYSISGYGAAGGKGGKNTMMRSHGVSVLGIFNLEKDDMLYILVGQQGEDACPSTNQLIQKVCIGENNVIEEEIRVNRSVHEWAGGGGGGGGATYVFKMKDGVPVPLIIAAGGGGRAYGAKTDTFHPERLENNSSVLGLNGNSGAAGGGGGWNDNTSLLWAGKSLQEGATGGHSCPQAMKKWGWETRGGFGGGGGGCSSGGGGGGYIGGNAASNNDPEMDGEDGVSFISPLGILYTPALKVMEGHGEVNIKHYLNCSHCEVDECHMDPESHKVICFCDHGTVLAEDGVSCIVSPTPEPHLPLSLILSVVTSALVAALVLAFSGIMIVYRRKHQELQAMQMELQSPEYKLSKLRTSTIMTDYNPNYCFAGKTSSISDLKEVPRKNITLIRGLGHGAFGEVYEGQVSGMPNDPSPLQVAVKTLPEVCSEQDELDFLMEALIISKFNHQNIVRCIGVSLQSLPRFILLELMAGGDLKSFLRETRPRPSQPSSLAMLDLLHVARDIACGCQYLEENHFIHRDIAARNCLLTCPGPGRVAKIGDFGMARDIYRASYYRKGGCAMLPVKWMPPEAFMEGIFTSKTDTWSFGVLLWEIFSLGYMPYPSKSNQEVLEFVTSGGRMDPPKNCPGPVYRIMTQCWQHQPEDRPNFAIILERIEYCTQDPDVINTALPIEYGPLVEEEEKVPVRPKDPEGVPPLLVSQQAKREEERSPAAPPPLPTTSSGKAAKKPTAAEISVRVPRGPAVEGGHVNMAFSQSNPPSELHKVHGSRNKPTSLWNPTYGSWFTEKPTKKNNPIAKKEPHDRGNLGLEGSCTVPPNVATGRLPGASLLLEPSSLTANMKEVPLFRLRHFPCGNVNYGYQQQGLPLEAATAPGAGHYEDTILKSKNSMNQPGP
Sequence of EGFR (P00533 25-1210): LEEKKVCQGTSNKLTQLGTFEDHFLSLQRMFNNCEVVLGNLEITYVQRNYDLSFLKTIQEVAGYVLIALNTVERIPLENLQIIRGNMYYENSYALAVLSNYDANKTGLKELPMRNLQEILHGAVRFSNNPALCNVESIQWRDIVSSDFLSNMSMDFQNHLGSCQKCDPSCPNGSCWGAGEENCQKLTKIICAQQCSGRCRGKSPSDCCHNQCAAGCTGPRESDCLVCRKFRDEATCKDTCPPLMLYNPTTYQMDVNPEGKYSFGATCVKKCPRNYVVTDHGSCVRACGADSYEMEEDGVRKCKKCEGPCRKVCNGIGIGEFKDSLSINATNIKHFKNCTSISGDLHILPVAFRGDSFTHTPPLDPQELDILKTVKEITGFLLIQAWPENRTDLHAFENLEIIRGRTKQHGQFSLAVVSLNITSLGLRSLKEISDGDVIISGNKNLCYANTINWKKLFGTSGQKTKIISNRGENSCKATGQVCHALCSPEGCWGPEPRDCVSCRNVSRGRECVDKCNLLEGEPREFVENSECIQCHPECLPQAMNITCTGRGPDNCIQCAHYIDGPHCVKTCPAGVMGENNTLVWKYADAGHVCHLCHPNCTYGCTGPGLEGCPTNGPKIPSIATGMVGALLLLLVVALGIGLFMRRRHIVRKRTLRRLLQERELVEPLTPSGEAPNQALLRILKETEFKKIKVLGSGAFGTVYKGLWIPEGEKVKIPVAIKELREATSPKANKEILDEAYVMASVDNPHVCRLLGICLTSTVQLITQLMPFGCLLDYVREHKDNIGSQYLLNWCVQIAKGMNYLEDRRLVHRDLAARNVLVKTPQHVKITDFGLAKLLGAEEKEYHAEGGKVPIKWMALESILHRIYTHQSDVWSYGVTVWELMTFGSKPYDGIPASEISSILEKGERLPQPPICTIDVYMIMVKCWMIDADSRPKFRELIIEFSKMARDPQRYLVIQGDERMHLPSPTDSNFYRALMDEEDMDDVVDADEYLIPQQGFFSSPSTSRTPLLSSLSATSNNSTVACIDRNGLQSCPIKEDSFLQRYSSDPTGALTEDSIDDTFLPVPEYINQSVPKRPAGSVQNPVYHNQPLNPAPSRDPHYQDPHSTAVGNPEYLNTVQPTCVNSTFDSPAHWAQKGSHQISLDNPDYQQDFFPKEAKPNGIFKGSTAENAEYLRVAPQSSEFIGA
Sequence of CDK5 (Q00535 whole entry): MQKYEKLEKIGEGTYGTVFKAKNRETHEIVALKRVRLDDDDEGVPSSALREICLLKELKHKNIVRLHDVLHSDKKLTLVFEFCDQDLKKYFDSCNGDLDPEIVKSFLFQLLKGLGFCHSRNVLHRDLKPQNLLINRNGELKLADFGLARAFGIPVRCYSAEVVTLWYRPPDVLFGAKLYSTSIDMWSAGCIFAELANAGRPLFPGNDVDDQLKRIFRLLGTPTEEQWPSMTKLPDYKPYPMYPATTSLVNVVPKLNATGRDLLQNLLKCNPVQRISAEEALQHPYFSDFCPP
Sequence of FLT4 (P35916 25-1363): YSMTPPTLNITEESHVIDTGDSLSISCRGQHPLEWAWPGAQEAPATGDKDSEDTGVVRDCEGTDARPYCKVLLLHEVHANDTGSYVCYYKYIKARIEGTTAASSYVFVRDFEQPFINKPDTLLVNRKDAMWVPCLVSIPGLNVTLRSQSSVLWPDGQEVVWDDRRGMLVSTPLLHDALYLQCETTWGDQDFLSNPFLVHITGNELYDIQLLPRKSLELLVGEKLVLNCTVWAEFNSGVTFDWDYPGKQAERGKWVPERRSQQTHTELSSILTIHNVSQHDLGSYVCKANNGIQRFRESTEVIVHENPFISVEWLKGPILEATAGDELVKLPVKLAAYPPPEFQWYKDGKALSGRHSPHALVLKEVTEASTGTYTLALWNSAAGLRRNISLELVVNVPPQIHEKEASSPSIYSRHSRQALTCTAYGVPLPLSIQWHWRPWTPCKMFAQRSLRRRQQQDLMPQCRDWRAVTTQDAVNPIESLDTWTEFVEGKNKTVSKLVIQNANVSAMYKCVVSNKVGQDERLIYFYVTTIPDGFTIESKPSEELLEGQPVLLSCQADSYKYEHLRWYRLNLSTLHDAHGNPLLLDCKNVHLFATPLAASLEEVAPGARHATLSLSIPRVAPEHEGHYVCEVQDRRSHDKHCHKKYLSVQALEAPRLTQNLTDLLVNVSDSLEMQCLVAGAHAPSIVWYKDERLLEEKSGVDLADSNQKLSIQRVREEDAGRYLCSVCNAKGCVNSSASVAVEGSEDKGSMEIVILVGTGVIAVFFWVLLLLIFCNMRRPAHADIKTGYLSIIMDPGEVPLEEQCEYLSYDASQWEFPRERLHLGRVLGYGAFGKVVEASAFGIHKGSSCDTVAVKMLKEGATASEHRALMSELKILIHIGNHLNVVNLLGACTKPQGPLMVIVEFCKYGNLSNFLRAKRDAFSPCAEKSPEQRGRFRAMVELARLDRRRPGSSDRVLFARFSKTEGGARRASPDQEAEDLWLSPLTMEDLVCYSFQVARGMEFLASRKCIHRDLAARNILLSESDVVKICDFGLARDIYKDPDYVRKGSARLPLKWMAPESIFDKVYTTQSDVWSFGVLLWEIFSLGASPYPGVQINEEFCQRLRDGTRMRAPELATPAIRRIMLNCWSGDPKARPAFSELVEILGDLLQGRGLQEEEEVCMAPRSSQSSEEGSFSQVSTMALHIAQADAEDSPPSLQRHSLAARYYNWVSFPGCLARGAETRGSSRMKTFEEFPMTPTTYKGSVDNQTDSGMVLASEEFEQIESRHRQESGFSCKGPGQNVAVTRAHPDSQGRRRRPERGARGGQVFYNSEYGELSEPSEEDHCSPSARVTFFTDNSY

In the case of COc1cccc(OC)c1C(=O)Nc1cccc(-c2nn3ccccc3c2-c2ccnc(Nc3cccc(F)c3)n2)c1 [UNC10225310A], the inhibition at 1 µM (FLT3) is reported as 49%, the inhibition at 1 µM (CDKL2) is reported as 6% and the inhibition at 1 µM (FLT4) is reported as 27%. For the same compound, the inhibition at 1 µM (EGFR) was 91.7%, the inhibition at 1 µM (CDK5) was 21% and the inhibition at 1 µM (ALK) was 0%. For the same compound, the inhibition at 1 µM (DCAMKL1) was 16%.
Work on Cc1ccc(NC(=O)Nc2cccc(C(F)(F)F)c2)cc1 [UNC10225187A] yielded an inhibition at 1 µM (FLT3) of 59%, an inhibition at 1 µM (CDKL2) of 0% and an inhibition at 1 µM (FLT4) of 12%. It also gave an inhibition at 1 µM (EGFR) of 0%, an inhibition at 1 µM (CDK5) of 0% and an inhibition at 1 µM (ALK) of 0%. The inhibition at 1 µM (DCAMKL1) was 0%.
For O=c1cc(N2CCOCC2)nc2n(Cc3cccc(Cl)c3Cl)c(C3CC3)nn12 [UNC10225469A], the inhibition at 1 µM (FLT3) was 10%, the inhibition at 1 µM (CDKL2) was 0% and the inhibition at 1 µM (FLT4) was 10%. The inhibition at 1 µM (EGFR) was 0%, the inhibition at 1 µM (CDK5) was 7% and the inhibition at 1 µM (ALK) was 0%. For the same compound, the inhibition at 1 µM (DCAMKL1) was 0%.
For CS(=O)(=O)Cc1ccc(Nc2nccc(-c3c(-c4cccc(NC(=O)C5CCCCC5)c4)nn4ncccc34)n2)cc1 [UNC10225159A], the inhibition at 1 µM (FLT3) was 88%, the inhibition at 1 µM (CDKL2) was 5% and the inhibition at 1 µM (FLT4) was 52%. The inhibition at 1 µM (EGFR) was 68%, the inhibition at 1 µM (CDK5) was 4% and the inhibition at 1 µM (ALK) was 29%. It also gave an inhibition at 1 µM (DCAMKL1) of 0%.
For Cn1cc(-c2cnc(N)c3c(-c4ccc5c(c4)CCN5C(=O)Cc4ccccc4)csc23)cn1 [UNC10225012A], the inhibition at 1 µM (FLT3) was 99%, the inhibition at 1 µM (CDKL2) was 0% and the inhibition at 1 µM (FLT4) was 31%. The inhibition at 1 µM (EGFR) was 3%, the inhibition at 1 µM (CDK5) was 2% and the inhibition at 1 µM (ALK) was 0%. For the same compound, the inhibition at 1 µM (DCAMKL1) was 0%.
